{"source": "patent US5858684A", "about": "“Method of screening calcium receptor-active molecules” (priority 1995, dated 1999)", "format_in_all_cases": "cell-based", "key": {"[1]": {"biological_target": "T1, bovine parathyroid cell calcium receptor (BoPCaR 1) (Bos taurus, UniProt P35384)", "T1 construct": "Xenopus oocytes were injected with BoPCaR 1, the 5.3 Kb cDNA encoding a bovine parathyroid cell calcium receptor; expressed in transfected cells; host or cells: Xenopus laevis oocytes injected with cRNA/cDNA of BoPCaR 1", "T1 sequence (P35384 20-1085)": "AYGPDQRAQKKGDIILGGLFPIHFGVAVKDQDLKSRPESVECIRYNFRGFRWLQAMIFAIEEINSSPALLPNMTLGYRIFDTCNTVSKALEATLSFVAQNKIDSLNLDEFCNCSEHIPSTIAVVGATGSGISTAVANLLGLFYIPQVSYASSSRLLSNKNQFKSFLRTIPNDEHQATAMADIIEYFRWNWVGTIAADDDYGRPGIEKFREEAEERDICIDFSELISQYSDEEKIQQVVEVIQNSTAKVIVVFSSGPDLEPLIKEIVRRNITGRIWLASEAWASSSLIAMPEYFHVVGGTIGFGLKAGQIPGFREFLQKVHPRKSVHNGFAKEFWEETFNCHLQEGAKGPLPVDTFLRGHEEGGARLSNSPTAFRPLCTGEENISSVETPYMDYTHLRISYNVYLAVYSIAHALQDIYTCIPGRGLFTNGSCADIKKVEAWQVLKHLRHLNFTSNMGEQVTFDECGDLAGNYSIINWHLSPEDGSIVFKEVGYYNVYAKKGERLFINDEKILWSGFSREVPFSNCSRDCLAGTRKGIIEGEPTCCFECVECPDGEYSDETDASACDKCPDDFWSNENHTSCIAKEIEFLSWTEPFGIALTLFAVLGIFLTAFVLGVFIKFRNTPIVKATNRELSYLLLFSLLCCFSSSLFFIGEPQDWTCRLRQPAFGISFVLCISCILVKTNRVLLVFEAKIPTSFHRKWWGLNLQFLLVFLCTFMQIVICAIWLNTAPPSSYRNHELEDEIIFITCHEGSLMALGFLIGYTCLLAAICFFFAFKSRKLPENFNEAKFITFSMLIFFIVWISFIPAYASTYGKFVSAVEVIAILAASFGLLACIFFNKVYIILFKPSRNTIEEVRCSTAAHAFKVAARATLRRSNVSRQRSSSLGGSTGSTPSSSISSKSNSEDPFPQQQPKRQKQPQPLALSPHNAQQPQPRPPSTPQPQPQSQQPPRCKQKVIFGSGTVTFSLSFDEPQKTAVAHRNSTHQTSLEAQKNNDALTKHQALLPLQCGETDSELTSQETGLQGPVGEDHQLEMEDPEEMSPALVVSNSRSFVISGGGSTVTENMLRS", "experiment": "Cl- current in Xenopus oocytes expressing BoPCaR 1", "details": "for Cl- current response in the absence of extracellular Ca2+: no extracellular Ca2+", "experimental": "Following incubation, an oocyte was placed into a 100-μl plastic chamber and superfused with MBS at a flow rate of 0.5 ml/min using a peristaltic pump. Test molecules or inorganic polycations were added by rapidly moving the tubing into different buffers. Recording and current-passing electrodes were constructed from thin-wall capillary tubing pulled to a resistance of 1-3 Mohms and filled with 3M KCl. […] Currents were recorded directly onto a strip chart recorder.\nThe techniques used to clone the parathyroid calcium receptor are briefly described in this example; a more complete description of the techniques is provided in preceding sections, which describe techniques which may be used to clone additional forms of the Ca^2+ -receptor from other cell types. Poly(A^+)-enriched mRNA was initially prepared from bovine parathyroid glands by extracting with guanidinium thiocyanate, centrifugation through CsCl and oligo(dT) cellulose chromatography. […] No such currents were elicited in control eggs injected with water.\nThese responses are mediated by the following series of biochemical events:\nXenopus oocytes were injected with BoPCaR 1, the 5.3 Kb cDNA encoding a bovine parathyroid cell calcium receptor as described in Example 25. After two to three days, Cl^- currents were examined in the oocytes using a two-electrode voltage clamp.\nXenopus oocytes were injected with BoPCaR 1 as described in Example 25. After two to three days, Cl^- currents were examined in the oocytes using two electrode voltage clamp."}, "[2]": {"tested_on": "parathyroid cell calcium receptor", "details": "for response in the absence of extracellular Ca2+: Ca2+-free / absence of extracellular Ca2+", "method": "For example, bovine parathyroid cells loaded with fura-2 are initially suspended in buffer containing 0.5 mM CaCl2. A test substance is added to the cuvette in a small volume (5-15 μl) and changes in the fluorescence signal are measured. Cumulative increases in the concentration of the test substance are made in the cuvette until some predetermined concentration is achieved or no further changes in fluorescence are noted.\nThis section describes procedures used to obtain and treat parathyroid cells from calves and humans. […] Human parathyroid glands, were obtained from patients undergoing surgical removal of parathyroid tissue for primary or uremic hyperparathyroidism (uremic HPT), and were treated similarly to bovine tissue.\nGlands were trimmed of excess fat and connective tissue and then minced with fine scissors into cubes approximately 2-3 mm on a side. Dissociated parathyroid cells were prepared by collagenase digestion and then purified by centrifugation in Percoll buffer. The resultant parathyroid cell preparation was essentially devoid of red blood cells, adipocytes, and capillary tissue as assessed by phase contrast microscopy and Sudan black B staining. Dissociated and purified parathyroid cells were present as small clusters containing 5 to 20 cells.\nThe cells were then pelleted, resuspended in the same buffer, but lacking the ester, and incubated a further 15 minutes at 37° C. The cells were subsequently washed twice with PCB containing 0.5 mM CaCl2 and 0.5% BSA and maintained at room temperature (about 20° C.). Immediately before use, the cells were diluted five-fold with prewarmed 0.5 mM CaCl2 -PCB to obtain a final BSA concentration of 0.1%. The concentration of cells in the cuvette used for fluorescence recording was 1-2×10^6 /ml.\nThe fluorescence of indicator-loaded cells was measured at 37° C. in a spectrofluorimeter (Biomedical Instrumentation Group, University of Pennsylvania, Philadelphia, Pa.) equipped with a thermostated cuvette holder and magnetic stirrer using excitation and emission wavelengths of 340 and 510 nm, respectively. […] Leakage of dye is dependent on temperature and most occurs within the first 2 minutes after warming the cells in the cuvette. Dye leakage increases only very slowly thereafter. To correct the calibration for dye leakage, cells were placed in the cuvette and stirred at 37° C. for 2-3 minutes. The cell suspension was then removed, the cells pelleted, and the supernatant returned to a clean cuvette. […] This estimate was subtracted from the apparent Fmin.\nDissociated bovine parathyroid cells were purified on gradients of Percoll and cultured overnight in serum-free medium."}, "C-cell calcium receptor": {"biological_target": "T2, C-cell calcium receptor (Rattus norvegicus, UniProt P48442)", "T2 sequence (P48442 20-1079)": "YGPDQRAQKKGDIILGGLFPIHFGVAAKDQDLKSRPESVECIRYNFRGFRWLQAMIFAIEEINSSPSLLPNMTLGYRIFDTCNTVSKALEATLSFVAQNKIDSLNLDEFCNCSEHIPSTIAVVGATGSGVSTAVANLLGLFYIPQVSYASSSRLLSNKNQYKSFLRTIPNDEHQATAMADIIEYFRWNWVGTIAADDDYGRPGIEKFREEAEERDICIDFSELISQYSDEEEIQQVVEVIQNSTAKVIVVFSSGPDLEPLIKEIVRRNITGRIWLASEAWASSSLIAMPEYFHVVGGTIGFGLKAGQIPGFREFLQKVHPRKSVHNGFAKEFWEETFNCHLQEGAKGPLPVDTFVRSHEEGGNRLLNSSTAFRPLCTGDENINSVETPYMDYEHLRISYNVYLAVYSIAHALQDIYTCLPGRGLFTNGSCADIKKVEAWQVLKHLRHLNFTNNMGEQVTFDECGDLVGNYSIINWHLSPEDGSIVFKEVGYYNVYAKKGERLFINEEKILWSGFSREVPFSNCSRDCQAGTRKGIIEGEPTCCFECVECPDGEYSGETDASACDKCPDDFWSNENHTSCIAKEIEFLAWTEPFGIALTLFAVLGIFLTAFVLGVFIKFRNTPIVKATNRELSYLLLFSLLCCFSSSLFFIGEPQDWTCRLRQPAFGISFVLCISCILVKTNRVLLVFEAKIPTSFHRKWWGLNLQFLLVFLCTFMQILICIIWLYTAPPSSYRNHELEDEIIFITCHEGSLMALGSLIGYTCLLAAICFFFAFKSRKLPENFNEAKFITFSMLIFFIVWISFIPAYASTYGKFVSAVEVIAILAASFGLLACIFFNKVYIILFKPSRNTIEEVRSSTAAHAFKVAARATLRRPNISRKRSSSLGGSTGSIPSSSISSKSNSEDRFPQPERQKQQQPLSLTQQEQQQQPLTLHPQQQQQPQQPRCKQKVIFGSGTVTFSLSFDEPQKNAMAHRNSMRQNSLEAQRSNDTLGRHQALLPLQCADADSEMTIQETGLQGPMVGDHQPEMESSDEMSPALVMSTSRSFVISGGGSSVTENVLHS", "set-up": "Neoplastic C-cells derived from a rat medullary thyroid carcinoma (rMTC 6-23); host or cells: rMTC 6-23", "from_the_text": "To assess the effects of molecular polycations on C-cells, a neoplastic cell line, derived from a rat medullary thyroid carcinoma (rMTC 6-23 cells) was used."}, "[3]": {"details": "rMTC 6-23 cells, fura-2, inactive = no increase in cytosolic Ca2+ at 1-5 mM"}}, "note": "Entries after “also recorded” stand apart in the source; their conditions may differ. Like-named read-outs stand apart in the source and are kept apart here.", "data": [{"smiles": "NC[C@@H]1O[C@H](O[C@H]2[C@@H](O)[C@H](O[C@@H]3[C@@H](O)[C@H](N)C[C@H](N)[C@H]3O[C@H]3O[C@H](CN)[C@@H](O)[C@H](O)[C@H]3N)O[C@@H]2CO)[C@H](N)[C@@H](O)[C@@H]1O", "note": "[Neomycin]", "values": [{"measurement": "concentrations eliciting increases in Cl- current", "setting": "[1]", "value": "20 to 100", "unit": "µM"}, {"measurement": "large inward currents: effective concentration", "setting": "[1]; cRNA-injected oocytes", "value": 200, "unit": "µM"}, {"measurement": "Cl- current response in the absence of extracellular Ca2+", "setting": "[1]", "value": "persists"}, {"measurement": "increase in [Ca2+]i / mobilization of intracellular Ca2+", "setting": "[2]", "value": "evoked rapid and transient increases"}, {"measurement": "increase in [Ca2+]i (words)", "setting": "[2]; 10 μM, Ca2+-free buffer", "value": "did not by itself cause an increase"}, {"measurement": "increase in [Ca2+]i (words)", "setting": "[2]; 100 μM, absence of extracellular Ca2+", "value": "evoked a rapid and transient increase"}, {"measurement": "effect on basal [Ca2+]i", "setting": "C-cell calcium receptor", "value": "fails to affect basal or evoked increases; also recorded: without effect on basal"}, {"measurement": "EC50 C-CELL (Table 6)", "setting": "C-cell calcium receptor; [3]", "value": "inactive"}]}, {"smiles": "NCCCNCCCCNCCCNCCCNCCCNC(=O)Cc1c[nH]c2ccccc12", "note": "[NPS 019]", "values": [{"measurement": "Cl- current", "setting": "[1]; 1 mM extracellular Ca2+", "value": "oscillatory increases"}, {"measurement": "Cl- current response in the absence of extracellular Ca2+", "setting": "[1]", "value": "persisted"}, {"measurement": "EC50", "setting": "[2]; bovine parathyroid cells, fura-2, read-out: EC50 PARATHYROID (Table 6)", "value": 40, "unit": "µM"}, {"measurement": "transient increase in [Ca2+]i", "setting": "C-cell calcium receptor; 10 μM, 0.5 mM [Ca2+]", "value": "transient increase"}]}, {"smiles": "COc1cccc([C@@H](C)NCCCc2ccccc2Cl)c1", "note": "[NPS R-568, (R)-(+)-N-[3-(2-chlorophenyl)propyl]-amethyl-α-3-methoxybenzylamine]", "values": [{"measurement": "potentiation of response to submaximal extracellular Ca2+", "setting": "[1]", "value": "potentiate the response; also recorded: potentiated the responses to submaximal concentrations"}, {"measurement": "Cl- current response in the absence of extracellular Ca2+", "setting": "[1]", "value": "abolished"}, {"measurement": "increase in [Ca2+]i / mobilization of intracellular Ca2+", "setting": "[2]", "value": "evokes increases"}, {"measurement": "response in the absence of extracellular Ca2+", "setting": "[2]", "value": "fails to evoke increases; also recorded: do not cause the mobilization of intracellular"}, {"measurement": "effect on responses to extracellular Ca2+", "setting": "[2]; bovine parathyroid cells", "value": "potentiate responses to extracellular; also recorded: increase the sensitivity of the calcium receptor"}, {"measurement": "EC50", "setting": "C-cell calcium receptor; [3]", "value": 1.9, "unit": "µM"}]}, {"smiles": "COc1cccc([C@@H](C)NCCCc2ccccc2)c1", "note": "(single isomer, unassigned) [NPS R-467]", "values": [{"measurement": "potentiation of response to submaximal extracellular Ca2+", "setting": "[1]", "value": "potentiate the response"}, {"measurement": "increase in [Ca2+]i after 10 μM neomycin", "setting": "[2]; 30 μM NPS R-467 after 10 μM neomycin, Ca2+-free buffer", "value": "elicited a transient increase"}, {"measurement": "increase in [Ca2+]i after 100 μM neomycin", "setting": "[2]; 30 μM NPS R-467 after 100 μM neomycin, Ca2+-free buffer", "value": "did not cause an increase"}, {"measurement": "increase in [Ca2+]i (words)", "setting": "[2]; 30 μM, Ca2+-free buffer", "value": "no increase; also recorded: did not cause any increase"}, {"measurement": "increase in [Ca2+]i (words)", "setting": "[2]; 0.5 mM extracellular Ca2+", "value": "rapid and transient increase"}, {"measurement": "response in the absence of extracellular Ca2+", "setting": "[2]", "value": "abolished; also recorded: do not cause the mobilization of intracellular"}, {"measurement": "effect on responses to extracellular Ca2+", "setting": "[2]; bovine parathyroid cells", "value": "increase the sensitivity of the calcium receptor"}]}]}
